Assays:
[1] = target: T1, human TRPV3 (Homo sapiens, UniProt Q8NET8); experiment: In vitro antagonism of recombinant human TRPV3 activation (FLIPR Tetra calcium assay, 2-APB as agonist); assay type: cell-based; conditions: HEK293 cells stably expressing human TRPV3; 2-APB 80 μM; range class; read-out: IC50 (reported range)
T1 construct: expressed in transfected cells
T1 sequence (Q8NET8 1-790): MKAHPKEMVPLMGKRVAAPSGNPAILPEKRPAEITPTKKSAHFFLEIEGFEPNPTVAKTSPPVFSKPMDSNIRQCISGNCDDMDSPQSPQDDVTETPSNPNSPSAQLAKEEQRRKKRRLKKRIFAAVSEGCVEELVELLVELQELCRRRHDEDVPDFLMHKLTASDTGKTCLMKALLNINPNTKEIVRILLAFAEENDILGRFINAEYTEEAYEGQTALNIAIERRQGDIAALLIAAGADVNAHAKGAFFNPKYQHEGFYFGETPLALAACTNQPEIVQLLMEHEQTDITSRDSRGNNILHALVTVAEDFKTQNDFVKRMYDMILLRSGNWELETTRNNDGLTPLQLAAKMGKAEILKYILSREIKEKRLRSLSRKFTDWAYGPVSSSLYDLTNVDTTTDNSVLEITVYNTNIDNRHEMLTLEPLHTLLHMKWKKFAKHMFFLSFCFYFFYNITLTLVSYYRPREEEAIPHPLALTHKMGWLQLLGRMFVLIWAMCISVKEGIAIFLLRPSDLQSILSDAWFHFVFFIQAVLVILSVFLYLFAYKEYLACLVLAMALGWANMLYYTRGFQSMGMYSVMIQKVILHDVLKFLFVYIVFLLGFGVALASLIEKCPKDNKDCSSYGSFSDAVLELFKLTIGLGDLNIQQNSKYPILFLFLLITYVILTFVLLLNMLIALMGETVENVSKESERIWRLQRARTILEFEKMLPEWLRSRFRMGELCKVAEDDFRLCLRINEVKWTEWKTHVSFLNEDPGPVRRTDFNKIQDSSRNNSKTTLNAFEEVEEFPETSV
Description: Test compounds were evaluated for ability to antagonize the activation of recombinant human TRPV3 using FLIPR® Tetra cellular screening. Specifically, on the day prior to the experiment recombinant HEK293 cells that stably express human TRPV3 were removed from tissue culture flasks and plated in growth medium at 20,000 cells/well into Poly-d-lysine coated black/clear 384-well Plate (Corning, 3845) using a Multidrop® dispenser (ThermoScientific, Waltham, Mass.). Prior to the start of the assay, the medium was removed by aspiration, and cells were loaded with 30 μL no-wash FLIPR® Calcium-4 dye (λEX=470-495 nm, λEM=515-575 nm; Molecular Devices, Sunnyvale, Calif.). The cells were then incubated for 90-120 minutes in the dark prior to addition of the test compound.
A double-addition protocol was used. The test compound (i.e., the TRPV3 antagonist) was added at the 10 second time point, followed by the addition of a TRPV3 agonist three minutes later. Each test compound evaluated was first dissolved in DMSO to prepare a 10 mM stock solution. A solution (5×) of the test compound was then prepared in DPBS (Dulbecco's Phosphate Buffered Saline) and 10 μL of that solution was added to the cells at a delivery rate of 40 μL/sec. The TRPV3 agonist used to activate human TRPV3 expressed by the […] was 2-aminoethoxy-diphenyl borate (2-APB; Tocris Cookson, Ellisville, Mo.) at 80 μM. Final assay volume was 50 μL. Total length of an experimental run was 10 minutes.
Changes in fluorescence were measured over time using the FLIPR® instrument. The intensity of the fluorescence was captured and digitally transferred to an interfaced computer. The maximum response minus minimum response was calculated and expressed as the percentage of the maximum 2-APB response in the absence of antagonist. The concentration of 2-APB corresponds to its EC80.
Table 1 reports the IC50 values measured for the test compounds as human TRPV3 antagonists. […] Actual measured values are shown parenthetically after the reported range. In most cases, the values reported are average values from at least two runs (i.e., n≧2).

[2] = In vitro human microsomal stability assay; assay type: in vitro ADME; conditions: human, 0.5 h, 0.5 μM, pH 7.4
Description: (§1) Test compounds were evaluated for metabolic stability in an in vitro rat microsomal stability assay using rat (Sprague-Dawley, from BD Biosciences) liver microsomes and/or an in vitro human microsomal stability assay using human (Xenotech) liver microsomes. […] Incubations were carried out at 37° C. with a final incubation volume of 135 μL. […] A 1.5 μL aliquot of reduced nicotine adenine disphosphonucleotide (NADPH) (Chem-Impex Int'L Inc., Lot 12532024) was also added to the time-zero plates.

[3] = In vitro rat microsomal stability assay; assay type: in vitro ADME, rat (Sprague-Dawley); conditions: Sprague-Dawley, rat, 0.5 h, 0.5 μM, pH 7.4
Description: as §1

| SMILES | IC50 [1] [µM] | HUMAN MICROSOMAL STABILITY (% REMAINING AFTER 30 MINUTES) [2] [%] | RAT MICROSOMAL STABILITY (% REMAINING AFTER 30 MINUTES) [3] [%] |
| --- | --- | --- | --- |
| OC(c1ncccn1)C1(c2ccc(OC(F)(F)F)cc2)CCC1 (stereo not shown) [Example 31, pyrimidin-2-yl{1-[4-(trifluoromethoxy)phenyl]cyclobutyl}methanol] | 1.1 to 5 | – | – |
| OC(c1ncccn1)C1(c2cccc(F)c2)CCC1 (stereo not shown) [Example 33, [1-(3-fluorophenyl)cyclobutyl](pyrimidin-2-yl)methanol] | 5.1 to 20 | – | – |
| OC(c1ncccn1)C1(c2ccc(F)c(F)c2)CCC1 (stereo not shown) [Example 35, [1-(3,4-difluorophenyl)cyclobutyl](pyrimidin-2-yl)methanol] | 5.1 to 20 | – | – |
| OC(c1ncccn1)C1(c2ccccc2OC(F)(F)F)CCC1 (stereo not shown) [Example 36, pyrimidin-2-yl{1-[2-(trifluoromethoxy)phenyl]cyclobutyl}methanol] | 5.1 to 20 | – | – |
| CC(c1cccc(Cl)c1)C1(C(O)c2ccccn2)CCC1 (stereo not shown) [Example 44, {1-[1-(3-chlorophenyl)ethyl]cyclobutyl}(pyridin-2-yl)methanol] | 5.1 to 20 | – | – |
| CC(c1cccc(F)c1)C1(C(O)c2ccccn2)CCC1 (stereo not shown) [Example 47, {1-[1-(3-fluorophenyl)ethyl]cyclobutyl}(pyridin-2-yl)methanol] | 1.1 to 5 | – | – |
| CC(c1ccccc1F)C1(C(O)c2ccccn2)CCC1 (stereo not shown) [Example 48, {1-[1-(2-fluorophenyl)ethyl]cyclobutyl}(pyridin-2-yl)methanol] | 5.1 to 20 | – | – |
| CC(c1ccccc1)C1(C(O)c2ccccn2)CCC1 (stereo not shown) [Example 51, [1-(1-phenylethyl)cyclobutyl](pyridin-2-yl)methanol] | 5.1 to 20 | – | – |
| CC(c1ccc(C(F)(F)F)cc1)C1(C(O)c2ccccn2)CCC1 (stereo not shown) [Example 53, pyridin-2-yl(1-{1-[4-(trifluoromethyl)phenyl]ethyl}cyclobutyl)methanol] | 1.1 to 5 | – | – |
| OC(c1ccccn1)C1(c2ccccc2)CCOCC1 (stereo not shown) [Example 60, (4-phenyltetrahydro-2H-pyran-4-yl)(pyridin-2-yl)methanol] | 5.1 to 20 | – | – |
| OC(c1ccccn1)C1(c2cccc(F)c2)CCOCC1 (stereo not shown) [Example 61, [4-(3-fluorophenyl)tetrahydro-2H-pyran-4-yl](pyridin-2-yl)methanol] | 5.1 to 20 | – | – |
| OC(c1ccccn1)C1(c2ccc(F)cc2)CCOCC1 (stereo not shown) [Example 62, [4-(4-fluorophenyl)tetrahydro-2H-pyran-4-yl](pyridin-2-yl)methanol] | 5.1 to 20 | – | – |
| O=C1CC(c2cccc(OC(F)(F)F)c2)([C@H](O)c2ccccn2)C1 [Example 256, 3-[(S)-hydroxy(pyridin-2-yl)methyl]-3-[3-(trifluoromethoxy)phenyl]-cyclobutanone] | – | 44 | 55 |
| O=C1CC(c2cccc(OC(F)(F)F)c2)([C@@H](O)c2ccccn2)C1 [Example 257, 3-[(R)-hydroxy(pyridin-2-yl)methyl]-3-[3-(trifluoromethoxy)phenyl]-cyclobutanone] | – | 42 | 57 |
| O=C1CC(c2ccc(F)c(Cl)c2)([C@H](O)c2ccccn2)C1 [Example 268, 3-(3-chloro-4-fluorophenyl)-3-[(S)-hydroxy(pyridin-2-yl)methyl]-cyclobutanone] | – | 66 | 82 |
| OC(c1ccccn1)C1(C2CCOC2)CCC1 (stereo not shown) [Example 284, pyridin-2-yl[1-(tetrahydrofuran-3-yl)cyclobutyl]methanol] | – | >85 | 16 |
| COc1ccc(C(O)C2(c3ccc(Cl)c(Cl)c3)CCC2)nc1 (stereo not shown) [Example 287, [1-(3,4-dichlorophenyl)cyclobutyl](5-methoxypyridin-2-yl)methanol] | – | 15 | <0.01 |
| COc1ccnc(C(O)C2(c3ccc(Cl)c(Cl)c3)CCC2)c1 (stereo not shown) [Example 289, [1-(3,4-dichlorophenyl)cyclobutyl](4-methoxypyridin-2-yl)methanol] | – | 4.2 | <0.01 |
| O=C1CC(c2cc(C(F)(F)F)ccn2)(C(O)c2ccccn2)C1 (stereo not shown) [Example 293, 3-[hydroxy(pyridin-2-yl)methyl]-3-[4-(trifluoromethyl)pyridin-2-yl]cyclobutanone] | – | 78 | 69 |
| OC1CC(c2cc(C(F)(F)F)ccn2)([C@H](O)c2ccccn2)C1 (stereo partly drawn) [Example 294, 3-[(S)-hydroxy(pyridin-2-yl)methyl]-3-[4-(trifluoromethyl)pyridin-2-yl]cyclobutanol] | – | >85 | >85 |
| O=C1CC(c2cncc(C(F)(F)F)c2)(C(O)c2ccccn2)C1 (stereo not shown) [Example 295, 3-[hydroxy(pyridin-2-yl)methyl]-3-[5-(trifluoromethyl)pyridin-3-yl]cyclobutanone] | – | 70 | 8.2 |
| O=C1CC(c2cncc(C(F)(F)F)c2)([C@H](O)c2ccccn2)C1 [Example 296, 3-[(S)-hydroxy(pyridin-2-yl)methyl]-3-[5-(trifluoromethyl)pyridin-3-yl]cyclobutanone] | – | 67 | 12 |
| OC(c1ccccn1)C1(c2ccnc(C(F)(F)F)c2)CC2(C1)OCCO2 (stereo not shown) [Example 297, pyridin-2-yl{2-[2-(trifluoromethyl)pyridin-4-yl]-5,8-dioxaspiro[3.4]oct-2-yl}methanol] | – | >85 | 2.0 |
| O=C1CC(c2ccnc(C(F)(F)F)c2)(C(O)c2ccccn2)C1 (stereo not shown) [Example 298, 3-[hydroxy(pyridin-2-yl)methyl]-3-[2-(trifluoromethyl)pyridin-4-yl]cyclobutanone] | – | 80 | 59 |
| O=C1CC(c2ccnc(C(F)(F)F)c2)([C@H](O)c2ccccn2)C1 [Example 299, 3-[(S)-hydroxy(pyridin-2-yl)methyl]-3-[2-(trifluoromethyl)pyridin-4-yl]cyclobutanone] | – | >85 | >85 |
| CC1(O)CC(c2ccc(OC(F)(F)F)cc2)(C(O)c2ncccn2)C1 [Example 310, (trans)-3-((S)-hydroxy(pyrimidin-2-yl)methyl)-1-methyl-3-(4-(trifluoromethoxy)phenyl)cyclobutanol] | – | >85 | >85 |

Reference: patent US8772500B2, “TRPV3 modulators” (AbbVie Inc., priority 2011, dated 2014)
